Results published in BigSolDB 2.1.

O=C(O)c1ccc(CO)cc1
solubility (mole fraction)
Settings	in ethanol	in ethyl acetate	in ethyl formate	in isopropanol	in isopropyl acetate	in methanol	in n-butyl acetate	in n-propanol	in water
283.15 K	0.0289	0.00475	0.00168	0.0268	0.00324	0.0282	0.00341	0.0236	0.000244
288.15 K	0.0325	0.00528	0.00259	0.0294	0.00444	0.0323	0.00463	0.026	0.000254
293.15 K	0.0367	0.00653	0.00319	0.0337	0.00481	0.0361	0.00508	0.0298	0.0003
298.15 K	0.0414	0.00797	0.00396	0.0391	0.00599	0.0414	0.00622	0.0345	0.00039
303.15 K	0.0468	0.00919	0.00431	0.044	0.00827	0.0473	0.00854	0.0367	0.000532
308.15 K	0.0529	0.0109	0.00535	0.0523	0.00969	0.0535	0.01	0.0446	0.000641
313.15 K	0.0599	0.0133	0.00704	0.0602	0.0113	0.0608	0.0117	0.0516	0.000816
318.15 K	0.0678	0.0161	0.00773	0.0697	0.0127	0.0682	0.0132	0.0591	0.000993
323.15 K	0.0768	0.0199	0.00889	0.0826	0.0155	0.078	0.0158	0.0705	0.00128
